Assay results taken from patent US7915293B2, “Ubiquitin ligase inhibitors” (Rigel Pharmaceuticals, Inc., priority 2003, dated 2011).

Assays:
Design in all cases: key: “+” indicates that the compound exibits inhibitory activity; “−” indicates that low or no inhibitory activity was observed
HeLa cells = test: Cell proliferation assay, photographic image analysis of proliferation, apoptosis and death (PAD assay), HeLa; format: cell-based; settings: 6 concentrations tested
Protocol: (§1) A549 (ATCC# CCL-185), HeLa (ATCC# CCL-2), HCT116 (ATCC# CCL-247), and H1299 (ATCC# CRL-5803) cells were maintained in T175 flasks following the ATCC recommended media and handling procedures. Flasks reaching approximately 70% confluency were trypsinized and resuspended in RPMI media (Cell-Gro catalog number 10-040-CM) modified to contain 5% FBS, 100 ug/mlPen/Strep (Cell-Gro catalog number 30-002-CL), and 0.3 mg/ml L-Glutamine (Cell-Gro catalog number 25-003-CL). A 20,000 cells/ml solution was made for plating. Cells were plated in black Packard 96 well plates by placing 100 μl per well (2,000 cells per well).
(§2) Compounds and additional media were added 24 hours after cell plating. A compound master plate was created with concentrations 500 times greater than the final concentration added to the cells. All compound testing was done in duplicate using 6.3 fold dilutions starting with 10 mM. All outside wells (and 4 internal wells) were DMSO controls. Taxol and at least one additional control were run on all plates. Three microliters of the compound master plate were added to deep well blocks containing 750 μl of RPMI media. One hundred microliters were transferred from the compound/media deep well blocks to the plated cells resulting in a 500 fold dilution of the compounds. Cells were grown at 37° C., 5% CO2 for 48 hours.
(§3) Cells to be analyzed by photography were fixed and stained. One hundred microliters of media were removed and 100 μl of 9.3% […] was added to each well. Plates were left on the benchtop for 45 minutes. A staining solution containing 1.55 μl of 1 mg/ml DAPI added to 18.75 ml PBS was warmed for 15 minutes at 37° C. The cells were aspirated prior to washing with 100 μl of PBS. Seventy microliters of PBS were aspirated and 170 μl of the DAPI solution were added to each well of fixed cells. Plates were left at room temperature for one hour then aspirated and washed twice with 100 μl of PBS. The stained cells were left at 4° C. for a minimum of 16 hours before photographic analysis with Array Scan II (Cellomics). Analysis of the photographic images to determine numbers of live cells (proliferation), apoptotic cells and dead cells, were according to the methods described in U.S. Provisional Patent Application Ser. No. 60/406,714, which incorporated herein in its entirety.

[1] = target: E3 (His-APC11/APC2-"APC") (Homo sapiens, UniProt Q9NYG5+Q9UJX6); test: Plate-based E3 ligase assay (APC FLAG), auto-ubiquitination; format: biochemical; settings: for APC Flag 8 pt: 8 concentrations tested
Chain of E3 (His-APC11/APC2-"APC") (Q9NYG5 whole entry): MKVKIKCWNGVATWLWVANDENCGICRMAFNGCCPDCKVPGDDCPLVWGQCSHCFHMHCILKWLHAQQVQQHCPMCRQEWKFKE
Chain of E3 (His-APC11/APC2-"APC") (Q9UJX6 whole entry): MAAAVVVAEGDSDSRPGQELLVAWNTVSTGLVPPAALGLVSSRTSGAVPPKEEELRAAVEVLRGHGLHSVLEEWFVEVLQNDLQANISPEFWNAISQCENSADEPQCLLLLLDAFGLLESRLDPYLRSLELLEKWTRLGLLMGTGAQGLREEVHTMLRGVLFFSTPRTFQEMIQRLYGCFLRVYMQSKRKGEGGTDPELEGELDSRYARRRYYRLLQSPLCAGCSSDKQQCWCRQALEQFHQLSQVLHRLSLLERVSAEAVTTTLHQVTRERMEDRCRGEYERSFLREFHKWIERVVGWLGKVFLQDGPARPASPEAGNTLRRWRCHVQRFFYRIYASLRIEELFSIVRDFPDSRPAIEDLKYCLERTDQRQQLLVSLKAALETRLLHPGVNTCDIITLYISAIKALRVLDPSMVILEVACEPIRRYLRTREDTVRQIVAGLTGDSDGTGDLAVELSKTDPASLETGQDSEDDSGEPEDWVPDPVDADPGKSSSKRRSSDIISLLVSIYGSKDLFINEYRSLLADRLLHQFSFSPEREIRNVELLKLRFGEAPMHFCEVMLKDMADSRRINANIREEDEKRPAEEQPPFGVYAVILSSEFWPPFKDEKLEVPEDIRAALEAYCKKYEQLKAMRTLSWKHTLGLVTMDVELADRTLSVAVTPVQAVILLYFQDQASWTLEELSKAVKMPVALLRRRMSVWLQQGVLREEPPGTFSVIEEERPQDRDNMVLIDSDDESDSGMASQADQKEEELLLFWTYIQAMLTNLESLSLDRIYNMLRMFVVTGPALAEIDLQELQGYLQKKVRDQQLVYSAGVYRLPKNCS
Method in brief: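 His-APC11/APC2 auto-ubiquitination was run in casein-blocked nickel plates for 1 h at room temperature, with E1 at 5 ng/well, UbcH5c at 20 ng/well and APC at 100 ng/well. Buffer was 62.5 mM Tris pH 7.6, 3 mM MgCl2, 1 mM DTT, 2.5 mM ATP and Flag-ubiquitin at 100 ng/well. Detection used anti-Flag/HRP chemiluminescence, and IC50 was typically from 6 or 8 concentrations versus a DMSO control.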

A549 cells = test: Cell proliferation assay, photographic image analysis of proliferation, apoptosis and death (PAD assay), A549; format: cell-based; settings: 6 concentrations tested
Protocol: as §1, §2, §3

Structure (SMILES)	APC Flag 8 pt [1]	APC Flag (2 pt) ([1]; 2 concentrations tested)	PAD Assay, HELA 6 pt (HeLa cells)	PAD Assay, A549 6 pt (A549 cells)
O=S(=O)(Nc1cc(Cl)cnc1Cl)c1ccc(Oc2ncc(C(F)(F)F)cc2Cl)cc1 [Compound 257, 4-{[3-chloro-5-(trifluoromethyl)pyridin-2-yl]oxy}-N-(2,5-dichloropyridin-3-yl) benzenesulfonamide]	+		+	+
O=[N+]([O-])c1ccc(Oc2c(Cl)cc(S(=O)(=O)Nc3cc(F)c(F)cc3F)cc2Cl)c(Cl)c1 [Example 199, 3,5-dichloro-4-(2-chloro-4-nitrophenoxy)-N-(2,4,5-trifluorophenyl)benzenesulfonamide]	+		+	+
O=S(=O)(Nc1ccc(Oc2cc(C(F)(F)F)ccc2Cl)cc1F)c1cc(Cl)ccc1Cl [Example 277, 2,5-dichloro-N-{4-[2-chloro-5-(trifluoro-methyl)phenoxy]-2-fluorophenyl}benzene-sulfonamide]	+		+	+
O=S(=O)(Nc1cc(Cl)ccc1C(F)(F)F)c1ccc(Oc2ncc(C(F)(F)F)cc2Cl)cc1 [Compound 272, N-[5-chloro-2-(trifluoromethyl)phenyl]-4-{[3-chloro-5-(trifluoromethyl)pyridin-2-yl]oxy}benzenesulfonamide]	+		+	+
O=S(=O)(Nc1c(F)cccc1F)c1ccc(Oc2ncc(C(F)(F)F)cc2Cl)cc1 [Compound 259, 4-{[3-chloro-5-(trifluoromethy)pyridin-2-yl]oxy}-N-(2,6-difluorophenyl)benzene sulfonamide]	+		−	−
Cc1cc(NS(=O)(=O)c2cc(Cl)c(Oc3ccc([N+](=O)[O-])cc3Cl)c(Cl)c2)no1 [Example 217, 3,5-dichloro-4-(2-chloro-4-nitrophenoxy)-N-(5-methylisoxazol-3-yl)benzenesulfonamide]		− (2 pt)	−	−
CC(C)(C)c1cccc(C(C)(C)C)c1NS(=O)(=O)c1cc(Cl)c(Oc2ccc([N+](=O)[O-])cc2Cl)c(Cl)c1 [Example 231, 3,5-dichloro-4-(2-chloro-4-nitrophenoxy)-N-(2,6-di-tert-butylphenyl)benzenesulfonamide]	+		+	+
Cc1cc(F)ccc1NS(=O)(=O)c1cc(Cl)c(Oc2ccc([N+](=O)[O-])cc2Cl)c(Cl)c1 [Example 236, 3,5-dichloro-4-(2-chloro-4-nitrophenoxy)-N-(4-fluoro-2-methylphenyl)benzene-sulfonamide]	+		+	+
O=[N+]([O-])c1ccc(Oc2c(Cl)cc(S(=O)(=O)Nc3cc(F)ccc3F)cc2Cl)c(Cl)c1 [Example 237, 3,5-dichloro-4-(2-chloro-4-nitrophenoxy)-N-(2,5-difluorophenyl)benzenesulfonamide]	+		+	+
O=[N+]([O-])c1ccc(Oc2c(Cl)cc(S(=O)(=O)Nc3ccc(Oc4cc(C(F)(F)F)ccc4Cl)cc3F)cc2Cl)c(Cl)c1 [Example 290, 3,5-dichloro-4-(2-chloro-4-nitrophenoxy)-N-{4-[2-chloro-5-(trifluoromethyl)phenoxy]-2-fluorophenyl}benzenesulfonamide]	+		+	+

Now from value to compound, other results behind:

APC Flag 8 pt [1]	APC Flag (2 pt) ([1]; 2 concentrations tested)	Structure (SMILES)	PAD Assay, HELA 6 pt (HeLa cells)	PAD Assay, A549 6 pt (A549 cells)
+		O=[N+]([O-])c1ccc(Oc2ccc(S(=O)(=O)Nc3cccc(Br)c3)cc2Cl)c(C(F)(F)F)c1 [Example 270, N-(3-bRomophenyl)-3-chloro-4-[4-nitro-2-(trifluoromethyl)phenoxy]benzenesulfonamide]	+	+
−		O=C(Nc1ccc(Oc2ccc(F)cc2)c(Br)c1)c1cccc(Cl)c1 [Compound 303]	+	+
+		O=C(Nc1cccc(Cl)c1)Nc1ccc(Oc2ccc(F)cc2)c(Br)c1 [Compound 304]	+	+
+		O=[N+]([O-])c1ccc(Oc2ccc(NS(=O)(=O)c3cccc(Cl)c3)cc2)cc1 [Example 275, 3-chloro-N-[4-(4-nitrophenoxy)phenyl] benzenesulfonamide]	−	+
+		Cc1c(Cl)cccc1S(=O)(=O)Nc1ccc(Oc2ccc([N+](=O)[O-])cc2)cc1 [Example 274, 3-chloro-2-methyl-N-[4-(4-nitrophenoxy)phenyl]benzenesulfonamide]	−	+
−		O=[N+]([O-])c1ccc(Oc2c(Cl)cc(S(=O)(=O)Nc3ccc4cn[nH]c4c3)cc2Cl)c(Cl)c1 [Example 171, 3,5-dichloro-4-(2-chloro-4-nitrophenoxy)-N-1H-indazol-6-ylbenzenesulfonamide]	−	+
+		O=S(=O)(Nc1ccc(Oc2ccc(Cl)cc2)cc1)c1cc(Cl)ccc1Cl [Example 276, 2,5-dichloro-N-[4-(4-chlorophenoxy)phenyl]benzenesulfonamide]	−	+
+		Cc1cc2cc(NS(=O)(=O)c3cc(Cl)c(Oc4ccc([N+](=O)[O-])cc4Cl)c(Cl)c3)ccc2[nH]1 [Compound 244, 3,5-dichloro-4-(2-chloro-4-nitrophenoxy)-N-(2-methyl-1H-indol-5-yl)benzene sulfonamide]	+	+
+		Cc1ccc(Cl)cc1NS(=O)(=O)c1cc(Cl)c(Oc2ccc([N+](=O)[O-])cc2Cl)c(Cl)c1 [Example 252, 3,5-dichloro-N-(5-chloro-2-methylphenyl)-4-(2-chloro-4-nitrophenoxy)benzene-sulfonamide]	+	+
−		O=S(=O)(Nc1ccc(Oc2ncc(C(F)(F)F)cc2Cl)cc1)c1ccccc1C(F)(F)F [Example 296, N-(4-(3-chloro-5-(trifluoromethyl)pyridin-2-yloxy)phenyl)-2-(trifluoromethyl)benzenesulfonamide]	−	+
